Article PMC6331910, “The Curcumin Analogue 1,5-Bis(2-hydroxyphenyl)-1,4-pentadiene-3-one Induces Apoptosis and Downregulates E6 and E7 Oncogene Expression in HPV16 and HPV18-Infected Cervical Cancer Cells” (Molecules, 2015)

Legend:
HeLa [1] = assay: DNA fragmentation, Cell Death Detection ELISA (cytoplasmic nucleosomal enrichment); assay type: cell-based, human
Description: (§1) Each experiment included a set of untreated control cells (Media with DMSO alone). The enrichment of the cytoplasm of treated cells by mono- and oligonucleosomes are used to study whether enhanced DNA fragmentation is induced by diarylpentanoid treatment. This determination was made following the manufacturer’s instructions of the Cell Death Detection ELISA^PLUS kit (Roche Diagnostics, Mannheim, Germany). […] Following treatment, the cells were incubated in lysis buffer and centrifuged, after which the supernatant was transferred to streptavidin coated plates and shaken with the provided immunoreagent (mixture of anti-DNA-POD and anti-histone biotin) for 2 h. […] Enrichment factor, defined as the release of mono- and oligonucleosomes into the cytoplasm, was calculated using the formula below: (4) Enrichment factor =Absorbance of Test − Absorbance of Blank (substrate only)/Absorbance of Control − Absorbance of Blank (substrate only)

CaSki [2] = assay: as above; assay type: cell-based, human
Description: as §1, with “HeLa, 9 μM] at various time points. Each” for “Each”

HeLa [3] = assay: MTT cell viability (dose-dependent cytotoxicity) assay, 72 h; assay type: cell-based, human
Description: (§2) Control-treated wells contained cells incubated in media with equal volumes of DMSO (0.2%). […] The media was aspirated and cells were incubated in 100 µL complete medium with 0.5 mg/mL MTT solution for 4 h in the dark to allow metabolism of MTT by cellular mitochondrial dehydrogenases. The excess MTT was aspirated and the formazan crystals formed were dissolved by the addition of 100 µL of DMSO. The absorbance of dark blue formazan was read at 570/650 nm wavelengths using a microplate reader (Bio-Rad Benchmark Plus Microplate Spectrophotometer, Hercules, CA, USA). Triplicate absorbance values were averaged and the effect of the compounds on growth inhibition was assessed as percentage cell viability as follows: […] The results were analysed using GraphPad Prism version 6.00 for Windows (GraphPad Software, La Jolla, CA, USA). […] Overall EC50 was determined by taking the average EC50 from three independent experiments.

CaSki [4] = assay: as above; assay type: cell-based, human; settings: for reduction in cell viability: CaSki
Description: as §2

HPV16E7 = assay: Quantitative real-time PCR of viral oncogene mRNA in CaSki cells; assay type: cell-based, HPV16; settings: 24 h
Description: (§3) RNA extraction was performed using the Qiagen RNeasy® Mini Kit (Qiagen, Valencia, CA, USA). According to the manufacturer’s instructions, treated HeLa and CaSki cells were lysed using Buffer RLT (supplemented with β-mercaptoethanol) and centrifuged for 3 min at maximum speed. 70% ethanol was added to the lysate and placed in an RNeasy Mini spin column and spun at ≥8000× g for 15 s. Flow-through was discarded and the pellet was subjected to a series of wash steps using buffers RW1 and RPE and subsequent RNA elution. On-column RNase-Free DNase (Qiagen) treatment was incorporated into the extraction protocol to eliminate […]. Concentration and purity of extracted RNA was measured spectrophotometrically using NanoDrop 1000 (Thermo Fisher Scientific, Wilmington, DE, USA). Two μg of total RNA per 20 μL reaction was used for complementary DNA (cDNA) synthesis using a High Capacity RNA-to-cDNA kit (Applied Biosystems, Life Technologies, Foster City, CA, USA). Appropriate volumes of RNA sample were added to 10 μL 2XRT Buffer and 1 μL 20X RT Enzyme Mix and the total volume was adjusted to 20 μL using nuclease-free water. Reverse transcription was performed on the samples using the following conditions; 37 °C for 60 min and 95 °C for 5 min. The sequences used to design the primers and TaqMan® probes were obtained from previous publications, synthesized by Applied Biosystems and optimized to amplify the HPV16 and HPV18 E6 and E7 regions (sequences listed in Table 2) using the StepOnePlus™ Real-Time PCR system (Applied Biosystems). The optimized concentrations of the primers and probes used were […] respectively. Human VIC®-MGB ACTB (β-actin) was used as an endogenous control for internal normalisation and relative gene expression quantification. Each reaction was run in duplicates and used to calculate relative gene expression using the 2^−∆∆CT method. Expression is reported as fold change in the level of mRNA of treated cells relative to untreated cells, normalised to β-actin expression.

HPV16E6 = assay: as above; assay type: cell-based, HPV16; settings: 24 h
Description: as §3

O=C(C=Cc1ccccc1O)C=Cc1ccccc1O [MS17, 1,5-bis(2-hydroxyphenyl)-1,4-pentadiene-3-one]
increase in nucleosome enrichment (HeLa [1]; 6 μM, 24 h, vs untreated): 2.2 fold | increase in enrichment factor (HeLa [1]; 6 μM, 48 h, vs untreated): approximately two-fold | enrichment factor (HeLa [1]; 6 and 9 μM, 72 h): significant reduction of enrichment factor | increase in nucleosome enrichment (CaSki [2]; 4 μM, 24 h, vs untreated): 5 fold | enrichment factor (CaSki [2]; 48 h): no significant difference between doses | enrichment factor (CaSki [2]; 72 h): no significant reduction | Selective Index HeLa (HeLa [3]; EC50 (MRC9)/EC50 (HeLa) × 100): 177 | cell viability (HeLa [3]; HeLa, 12.5 to 100 μM, 72 h): less than 10% | EC50 (HeLa [3]; Homo sapiens, HeLa, MTT, 72 h, read-out: EC50 (Mean ± S.E.M.) HeLa): 2600 ± 900 nM | viability at 3.1 µM (HeLa [3]; Homo sapiens, HeLa, 3.1 μM, 72 h): 36% | viability at 6.3 µM (HeLa [3]; Homo sapiens, HeLa, 6.3 μM, 72 h): 14% | reduction in cell viability (CaSki [4]; 1.6 μM, 72 h): 30% | reduction in cell viability (CaSki [4]; 3.1 to 100 μM, 72 h): 90% | Selective Index CaSki (CaSki [4]; EC50 (MRC9)/EC50 (CaSki) × 100): 447 | EC50 (CaSki [4]; Homo sapiens, Ca-Ski, MTT, 72 h, read-out: EC50 (Mean ± S.E.M.) CaSki): 1030 ± 500 nM | inhibition of E7 oncogene expression (HPV16E7; 2 μM and 4 μM): did not show significant inhibition | decrease in HPV16E7 expression (HPV16E7; 6 μM, vs untreated): 3 fold | inhibition of E6 oncogene expression (HPV16E6; 2 μM and 4 μM): did not show significant inhibition | decrease in HPV16E6 expression (HPV16E6; 6 μM, vs untreated): 3 fold
